Assays:
Type in all cases: in vivo
[1] = test system: monocotylidonous and dicotylidonous weed and crop plants; assay: Herbicidal pre-emergence action (other test plants); conditions: pre-emergence method, 80 g/ha, greenhouse, visual assessment vs untreated controls
In short: (§1)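 Visual percent effect relative to untreated controls (0% = like control, 100% = dead) assessed three weeks after treatment in the greenhouse. Compounds, as wettable powders in water (600 l/ha, 0.2% wetting agent), were sprayed at different amounts onto covering soil over seeds sown in sandy loam.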

[2] = test system: Setaria viridis; assay: Herbicidal pre-emergence action; conditions: pre-emergence method, 80 g/ha, greenhouse, visual assessment vs untreated controls
In short: as §1

[3] = test system: Echinocloa crus-galli; assay: Herbicidal pre-emergence action; conditions: pre-emergence method, 80 g/ha, greenhouse, visual assessment vs untreated controls
In short: as §1

[4] = test system: Alopecurus myosuroides; assay: Herbicidal pre-emergence action; conditions: pre-emergence method, 80 g/ha, greenhouse, visual assessment vs untreated controls
In short: as §1

[5] = test system: Lolium multiflorum; assay: Herbicidal pre-emergence action; conditions: pre-emergence method, 80 g/ha, greenhouse, visual assessment vs untreated controls
In short: as §1

[6] = test system: Setaria viridis; assay: Herbicidal post-emergence action; conditions: post-emergence method, 80 g/ha
In short: (§2)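 Greenhouse-grown weeds were treated post-emergence at the one-leaf stage, two to three weeks after sowing in sandy loam. Compounds formulated as WP were sprayed at various rates in 600 l/ha water with 0.2% wetting agent. Damage was scored visually after about three weeks versus untreated controls (0% = like control, 100% = dead).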

[7] = test system: Echinocloa crus-galli; assay: Herbicidal post-emergence action; conditions: post-emergence method, 80 g/ha
In short: as §2

[8] = test system: Alopecurus myosuroides; assay: Herbicidal post-emergence action; conditions: post-emergence method, 80 g/ha
In short: as §2

[9] = test system: Lolium multiflorum; assay: Herbicidal post-emergence action; conditions: post-emergence method, 80 g/ha
In short: as §2

[10] = test system: monocotylidonous and dicotylidonous weed and crop plants; assay: Herbicidal post-emergence action (other test plants); conditions: post-emergence method, 80 g/ha
In short: as §2

[11] = test system: cereals; assay: Container trials with cereals in the greenhouse, use of safeners (Mefenpyr 1 day prior to herbicide application)
Method: Seeds of monocotylidonous and dicotylidonous weed and crop plants are placed in sandy loam in wood fibre pots, covered with soil and cultivated in a greenhouse under good growth conditions. Two to three weeks after sowing, the test plants are treated at the one-leaf stage. The test compounds, formulated as wettable powders (WP), are then with a water application rate of 600 l/ha (converted), with 0.2% of wetting agent added, sprayed onto the green parts of the plants in different amounts. After the test plants have been kept in the greenhouse under optimum growth conditions for about three weeks, the effect of the preparations is assessed visually in comparison to untreated controls (herbicidal effect in percent: 100% effect=the plants have died, 0% effect=like control plants).
If it is to be additionally tested as to whether safeners can improve the plant compatibility of test substances in the case of crop plants, the following options are used for applying the safeners: • Seeds of the crop plants are, before sowing, dressed with safener substance (the amount of safener stated in percent, based on the weight of the seed) • Before the application of the test substances, the crop plants are sprayed with the safener at a certain application rate per hectare (usually one day before the application of the test substances) • The safener is applied together with the test substance as a tank mix (the amount of safener stated in g/ha or as a ratio, based on the herbicide).
Container Trials with Cereals in the Greenhouse

[12] = 28 days after application, 50 g of a.i./ha
[13] = 28 days after application, 100 g of a.i./ha
[14] = 10 days after application, 12.5 g of a.i./ha
[15] = 10 days after application, 25 g of a.i./ha
[16] = 10 days after application, 50 g of a.i./ha
[17] = 28 days after application, 12.5 g of a.i./ha
[18] = 28 days after application, 25 g of a.i./ha

Row | Compound | herbicidal effect AVEFA [1] [%] | herbicidal effect SETVI [2] [%] | herbicidal effect ECHCG [3] [%] | herbicidal effect ALOMY [4] [%] | herbicidal effect LOLMU [5] [%] | herbicidal effect against SETVI (Setaria viridis) [6] [%] | herbicidal effect against ECHCG (Echinochloa crus-galli) [7] [%] | herbicidal effect against ALOMY (Alopecurus myosuroides) [8] [%] | herbicidal effect against LOLMU (Lolium multiflorum) [9] [%] | herbicidal effect against AVEFA (Avena fatua) [10] [%] | Summer barley observed (%) [11, 12] [%] | Summer barley observed (%) [11, 13] [%] | Summer wheat observed (%) [11, 14] [%] | Summer wheat observed (%) [11, 15] [%] | Summer wheat observed (%) [11, 16] [%] | Summer wheat observed (%) [11, 17] [%] | Summer wheat observed (%) [11, 18] [%] | Summer wheat observed (%) [11, 12] [%] | Summer wheat observed (%) [11, 13] [%] | Summer barley observed (%) [11, 18] [%] | also measured
1 | CCc1cc(C)cc(CC)c1C1=C(O)[C@H]2CC3(C[C@H]2C1=O)OCCCO3 (relative stereo) [I-a-11] | 50 | 70 | 100 | 90 | 100 | 100 | 100 | 90 | 100 | 90 | 8 | 10 | 30 | 50 | 70 | 10 | 50 | 60 | 70 |  | 
2 | CCc1cc(C)cc(CC)c1C1=C(O)[C@H]2CC3(C[C@H]2C1=O)OCCCCO3 (relative stereo) [I-a-13] | 80 | 90 | 100 | 90 | 100 | 90 | 100 | 90 | 100 | 90 |  |  | 40 | 50 | 60 |  |  |  |  |  | 
3 | CCc1cc(C)cc(CC)c1C1=C(O)[C@H]2CC3(C[C@H]2C1=O)OCC=CCO3 (relative stereo) [I-a-14] | 80 | 90 | 100 | 100 | 100 | 100 | 100 | 90 | 100 | 90 | 10 | 20 | 50 | 60 | 60 | 10 | 30 | 30 | 70 | 8 | Summer barley observed (%) [11, 17]: 5%
4 | CCc1cc(C)cc(CC)c1C1=C(O)[C@H]2CC3(C[C@H]2C1=O)OCC(C)CO3 (relative stereo) [I-a-25] | 70 | 90 | 90 | 100 | 100 | 100 | 100 | 100 | 100 | 100 | 60 | 85 |  |  |  | 10 | 30 | 70 | 85 |  | 
5 | CCc1cc(C)cc(CC)c1C1=C(OC(=O)OC(C)C)[C@H]2C[C@]3(COC(C)(C)O3)C[C@H]2C1=O (relative stereo) [I-c-3] | 80 | 70 | 40 | 100 | 100 | 80 | 90 | 90 | 100 | 80 | 30 | 95 |  |  |  | 10 | 20 | 60 | 99 | 15 | 

From patent US8367873B2, “Phenyl-substituted bicyclooctane-1,3-dione derivatives” (Bayer Cropscience AG, priority 2008, dated 2013)
